# According to US20210260106A1, “CHLORITE-CONTAINING COMPOSITIONS” (ClearCrescent Technologies, LLC, priority 2008, published 2021):
# Like-named read-outs stand apart in the source and are kept apart here.
# Key:
# Candida albicans = settings: at 0.5%
# [1] = system: Trichophyton mentagrophytes ATCC MYA 4439; experiment: MIC study in broth culture, sodium chlorite and itraconazole; format: cell-based; settings: for MIC: Trichophyton mentagrophytes, read-out: amount of Itraconazole required to inhibit the fungus (MIC)
# [2] = system: dermataphytes that cause tinea pedis and onychomycosis
# [3] = system: Trichophyton rubrum ATCC MYA 4438; experiment: MIC study in broth culture, sodium chlorite and itraconazole; format: cell-based; settings: for MIC: Trichophyton rubrum, read-out: amount of Itraconazole required to inhibit the fungus (MIC)
# Experimental: As shown in the examples, in vitro data was generated and the minimum inhibitory concentrations (MIC) tests were determined in broth culture using ATCC MYA 4438. Itraconazole is the azole used in the study. […] On the X-axis are dilutions of itraconazole. Fungal Growth is noted by a + and lack of growth by a −.
# Referring to FIG. 18, the experiments were repeated with the strain Trichophyton rubrum.
# [4] = Topical treatment of psoriasis on chin and face; format: in vivo, human; settings: three days twice daily
# Experimental: Patient was treated on the chin for three days twice daily. On their right side of the chin, sodium chlorite solution was applied alone.
# They applied SC combined with CCT's herbal treatment to their right side of their chin. SC+ a composition containing 3.66 g thymol, 3.66 g menthol, 3.66 g menthyl acetate in 100 ml grapeseed oil with 0.25 ounce beeswax.
# [5] = system: onychomycosis; fungal infections of the skin and nails; experiment: Azole antifungals tested on fungal infections of skin and nails; design: species or system human; settings: in vivo
# human cells = settings: Ingram et al 2004; cited from earlier work
# [6] = Topical treatment of psoriasis, divided elbow, one subject; format: in vivo, human; settings: for Result after 3 days treated twice daily: elbow section
# Excerpt: Background: A subject suffered from Psoriasis diagnosed […]. They have not undergone treatment for their condition since 1996. They report rash after bathing that turns to white plaques with scaling within days. Treatment 1: […] They then distributed the combination to the entire affected right lateral section of their elbow. Treatment 2: […] They then distributed the combination to the entire affected outside lateral section. Treatment 3: […] They then distributed the combination to the entire affected interior lateral section.
# Treatment of dog wound = format: in vivo; settings: rear leg
# Excerpt: Dog was occasionally limping and favoring his rear leg. A 2-inch diameter area of raw red moist skin was observed where hair had fallen out. Upon close inspection a 1,½ inch suppurating cut was observed which created a dark line leading to a 1 cm×2 cm section of blackened skin. Dog had been topically treated with Triamcinolone Acetonide and bandaged previously to no effect.
# The ratio was 1:1. At the second and third interval Neosporin™ was mixed in hand with other compositions in a 1:1:1 ratio. Dog was not observed to lick wound.
# [7] = format: in vivo, human
# Excerpt: Compositions were topically applied to various skin and nail conditions. […] The solution was applied by dropper to affected areas, or combined with a bioactive agent and then applied to the affected area or applied sequentially to the affected area at least once daily, preferably twice daily during treatment period. […] Background: A subject was diagnosed with Dyshidrosis in March of 2012. Symptoms included small blisters on the palms of their hands and the underside of their fingers with scaling. […] They abandoned the treatment. Symptoms continued. They occasionally self-treated the condition with over the counter Lamisil. […] Treatment: […]
# Experimental for Candidia albicans: An in vitro determination of the use of sodium chlorite on human tissue culture and broth culture of Candidia albicans was performed.
molecule,measurement,setting,value
sodium chlorite,effect on Candida albicans on agar plates,Candida albicans,kills Candida albicans rather than simply inhibiting its growth
same,Candidia albicans killing,Candidia albicans; 0.5% sodium chlorite in culture broth,effective in killing
same,Candidia albicans killing,"Candidia albicans; 0.5% sodium chlorite in culture broth, listed as Sodium Chlorite",Yes
same,Candidia albicans killing,Candidia albicans; 2.0% sodium chlorite in culture broth,effective in killing
same,Candidia albicans killing,"Candidia albicans; 2.0% sodium chlorite in culture broth, listed as Sodium Chlorite",Yes
same,toxicity against Candidas albicans,Candidia albicans; at 0.5%,100%
same,regrowth of Candidia albicans,Candidia albicans; continued culture without sodium chlorite,did not result in regrowth
same,side by side comparison with standard antifungal agent in vitro,Candidia albicans; versus fluconazole,significantly superior results compared to fluconazole
same,drop of sodium chlorite's MIC,[1]; combined with itraconazole,two-fold
same,effective concentration when combined with azole antifungals,[2]; combined with antifungals in the azole group,≥ 0.015%
same,effective concentrations alone against dermataphytes,"[2]; sodium chlorite alone, broth culture and in vivo",0.25-4%
same,drop of sodium chlorite's MIC,[3]; combined with itraconazole,eight-fold
same,"recurrence of psoriasis symptoms in treated area of chin, 92 days later",[4],no recurrence of psoriasis symptoms
"CCC(C)n1ncn(-c2ccc(N3CCN(c4ccc(OCC5COC(Cn6cncn6)(c6ccc(Cl)cc6Cl)O5)cc4)CC3)cc2)c1=O (stereo not shown) [Itraconazole, itraconazole]",MIC,[1]; combined with sodium chlorite,< 0.03 µg/mL
same,MIC,[1]; itraconazole alone,0.125 µg/mL
same,decrease of itraconazole MIC,[1]; combined with sodium chlorite,at least 4 fold
same,MIC,[3]; combined with sodium chlorite,< 0.03 µg/mL
same,MIC,[3]; itraconazole alone,0.06 µg/mL
same,decrease of itraconazole MIC,[3]; combined with sodium chlorite,at least 2 fold
CC(=O)N1CCN(c2ccc(OCC3COC(Cn4ccnc4)(c4ccc(Cl)cc4Cl)O3)cc2)CC1 (stereo not shown) [Ketaconazole],effectiveness against fungal infection of nails/skin,[5],excellent results
chlorite ions,concentration shown to be non-toxic to human cells,human cells,100 ppm
"Clc1ccccc1C(c1ccccc1)(c1ccccc1)n1ccnc1 [1% Clotrimazole cream, Clotrimazole]",psoriasis symptoms two days later,"[6]; Treatment 3, elbow section",White dry scales were not perceived and the rash was less apparent
same,Result after 3 days treated twice daily,[6],plaques are not present
"N#C/C(=C1/SC[C@@H](c2ccc(Cl)cc2Cl)S1)n1ccnc1 [1% Luliconazole cream, luliconazole]",psoriasis symptoms one day later,"[6]; Treatment 2, elbow section",White dry scales were perceived though the rash was less apparent
same,Result after 3 days treated twice daily,[6],Red Rash and scaling
same,Result after 3 days treated twice daily,[6]; listed as Luliconazole,red rash and plaques were present
CC1(C)O[C@@H]2C[C@H]3[C@@H]4CCC5=CC(=O)C=C[C@]5(C)[C@@]4(F)[C@@H](O)C[C@]3(C)[C@]2(C(=O)CO)O1 [Triamcinolone Acetonide],wound outcome,Treatment of dog wound,no effect
"C=C1CCN([C@H](C)[C@](O)(Cn2cncn2)c2ccc(F)cc2F)CC1 [10% efinaconazole, efinaconazole]",Result after 3 days treated twice daily,[6],Rash and white scaling
same,Result after 3 days treated twice daily,[6]; listed as efinaconazole,white dry scales and evidence of rash
CN(C/C=C/C#CC(C)(C)C)Cc1cccc2ccccc12 [Lamisil],local tolerance of earlier treatment,"[7]; human, in vivo",stinging
same,result of earlier treatment of the subject's Dyshidrosis,[7]; subject's history before the study,no significant amelioration of symptoms
